From patent US20260070945A1, “MACROCYCLIC IMMUNOMODULATORS” (Bristol-Myers Squibb Company, priority 2022, published 2026)
pIC50: −log10 of the molar value. *1 amine or outer side, *2 acyl side, *3 side chain or, on linkers, in order; H or OH if unused. Where a SMILES comes first, the peptide text is derived from it. Bridges are numbered along the chain shown (N, C = ends). [ ]: non-standard residue; d: D form. The star is where a group is joined. ξ: configuration not given here. Phe(4-COOH) = N[C@@H](Cc1ccc(C(=O)O)cc1)C(=O)O; Bip = N[C@@H](Cc1ccc(-c2ccccc2)cc1)C(=O)O; Phe(3-Me) = Cc1cccc(C[C@H](N)C(=O)O)c1; X11 = CC[C@@H](C)C(N[*:1])C(=O)[*:2]; hArg = N=C(N)NCCCC[C@H](N)C(=O)O; 4Pal = N[C@@H](Cc1ccncc1)C(=O)O; Cha = N[C@@H](CC1CCCCC1)C(=O)O; Cit = NC(=O)NCCC[C@H](N)C(=O)O; Ile(3ξ) = CCC(C)[C@H](N)C(=O)O; Thr(3ξ) = CC(O)[C@H](N)C(=O)O; 12Ado = NCCCCCCCCCCCC(=O)O; Carboxymethyl = O=C(O)C*; NMeA = CN[C@@H](C)C(=O)O; Orn = NCCC[C@H](N)C(=O)O; Aun = NCCCCCCCCCCC(=O)O; Dab = NCC[C@H](N)C(=O)O; Dap = NC[C@H](N)C(=O)O; AEEA = NCCOCCOCC(=O)O

Biological target: T1, PD-1/PD-L1 interaction (PE-labeled human PD-L1-Ig binding to Jurkat cell line over-expressing human PD-1) (Homo sapiens, UniProt Q15116)
T1 construct: expressed in transfected cells; host or cells: Jurkat
T1 sequence (Q15116 25-288): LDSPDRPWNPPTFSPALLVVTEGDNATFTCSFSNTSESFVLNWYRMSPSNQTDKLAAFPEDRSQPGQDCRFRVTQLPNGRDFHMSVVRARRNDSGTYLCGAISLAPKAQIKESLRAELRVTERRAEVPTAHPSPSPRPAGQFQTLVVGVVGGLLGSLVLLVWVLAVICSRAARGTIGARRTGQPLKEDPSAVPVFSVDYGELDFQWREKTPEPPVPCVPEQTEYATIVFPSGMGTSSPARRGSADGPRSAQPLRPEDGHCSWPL
Experiment: Jurkat-PD-1 Cell Binding High-Content Screening Assay (CBA)
Conditions: Jurkat-hPD-1 cells, PE-labeled PD-L1-Ig 20 nM final; read-out: Jurkat HPD1 PDL1 IC50
In short: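 Compound is added first to the PD-1-expressing Jurkat cells and held 2 h at 37 °C in serum-containing DMEM. The fluorescent PD-L1 fusion follows at 20 nM final for 1 h. Fixed, Hoechst-stained cells are then imaged for bound label.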

| Compound | pIC50 |
| --- | --- |
| CC(C)C[C@@H]1NC(=O)[C@H](Cc2c[nH]c3ccccc23)NC(=O)[C@H](CC(=O)O)NC(=O)[C@H](Cc2ccc(C(=O)O)cc2)NC(=O)[C@H](Cc2ccc(OCC(=O)O)cc2)NC(=O)CSC[C@@H](C(=O)N[C@@H](CCN)C(=O)NCCOCCOCC(=O)NCCCCCCCCCCC(=O)O)NC(=O)[C@H](CCCCN)NC(=O)[C@H](C(C)C)NC(=O)[C@H](CC2CCCCC2)NC(=O)[C@H](CCN)NC(=O)[C@@H](CC(C)C)NC(=O)[C@H](C)N(C)C(=O)[C@H](C(C)C)NC(=O)[C@H](Cc2ccc(-c3ccccc3)cc2)NC1=O [Example 2192] ({CH2CO}-Y(Carboxymethyl)[Phe(4-COOH)]DWL[Bip]V[NMeA][dL][Dab][Cha]VKC[Dab][AEEA][Aun]-OH; thioether N-14) | 8.12 |
| CC(C)C[C@@H]1NC(=O)[C@H](Cc2c[nH]c3ccccc23)NC(=O)[C@H](CC(=O)O)NC(=O)[C@H](Cc2c[nH]cn2)NC(=O)[C@H](CCCCNC(=N)N)NC(=O)CSC[C@@H](C(=O)N[C@@H](CCN)C(=O)NCCCCCCCCCCC(=O)O)NC(=O)[C@H](CCCCN)NC(=O)[C@H](C(C)C)NC(=O)[C@H](CC2CCCCC2)NC(=O)[C@H](CCN)NC(=O)[C@@H](CC(C)C)NC(=O)[C@H](C)N(C)C(=O)[C@H](C(C)C)NC(=O)[C@H](Cc2ccc(-c3ccccc3)cc2)NC1=O [Example 2194] ({CH2CO}-[hArg]HDWL[Bip]V[NMeA][dL][Dab][Cha]VKC[Dab][Aun]-OH; thioether N-14) | 7.40 |
| CC(C)C[C@@H]1NC(=O)[C@H](Cc2c[nH]c3ccccc23)NC(=O)[C@H](CC(=O)O)NC(=O)[C@H](Cc2c[nH]cn2)NC(=O)[C@H](CCCCNC(=N)N)NC(=O)CSC[C@@H](C(=O)N[C@@H](CCN)C(=O)NCCCCCCCCCCC(=O)O)NC(=O)[C@H](CCCN)NC(=O)[C@H](C(C)C)NC(=O)[C@H](CC2CCCCC2)NC(=O)[C@H](CCN)NC(=O)[C@@H](CC(C)C)NC(=O)[C@H](C)N(C)C(=O)[C@H](C(C)C)NC(=O)[C@H](Cc2ccc(-c3ccccc3)cc2)NC1=O [Example 2195] ({CH2CO}-[hArg]HDWL[Bip]V[NMeA][dL][Dab][Cha]V[Orn]C[Dab][Aun]-OH; thioether N-14) | 7.10 |
| Cc1cccc(C[C@@H]2NC(=O)[C@H](CC(=O)O)NC(=O)[C@H](Cc3ccc(O)cc3)NC(=O)[C@H](Cc3ccccc3)NC(=O)CSC[C@@H](C(=O)N[C@@H](CCN)C(=O)NCCCCCCCCCCC(=O)O)NC(=O)[C@H](CCCN)NC(=O)[C@H](C(C)C)NC(=O)[C@H](CC(C)C)NC(=O)[C@H](CCN)NC(=O)[C@@H](C)NC(=O)[C@H](C)N(C)C(=O)[C@H](C(C)C)NC(=O)[C@H](Cc3ccc(-c4ccccc4)cc3)NC(=O)[C@H](CC(C)C)NC2=O)c1 [Example 2198] ({CH2CO}-FYD[Phe(3-Me)]L[Bip]V[NMeA][dA][Dab]LV[Orn]C[Dab][Aun]-OH; thioether N-14) | 7.14 |
| CCC(C)[C@@H]1NC(=O)[C@H](Cc2ccc(-c3ccccc3)cc2)NC(=O)[C@H](CC(C)C)NC(=O)[C@H](Cc2cccc(C)c2)NC(=O)[C@H](CC(=O)O)NC(=O)[C@H](Cc2ccc(O)cc2)NC(=O)[C@H](Cc2ccccc2)NC(=O)CSC[C@@H](C(=O)N[C@@H](CN)C(=O)NCCCCCCCCCCC(=O)O)NC(=O)[C@H](CCCN)NC(=O)[C@H](C(C)C)NC(=O)[C@H](CC(C)C)NC(=O)[C@H](CCN)NC(=O)[C@@H](C)NC(=O)[C@H](C)N(C)C1=O (some centres unmarked) [Example 2199] ({CH2CO}-FYD[Phe(3-Me)]L[Bip][Ile(3ξ)][NMeA][dA][Dab]LV[Orn]C[Dap][Aun]-OH; thioether N-14) | 6.88 |
| CCC(C)[C@@H]1NC(=O)[C@H](Cc2ccc(-c3ccccc3)cc2)NC(=O)[C@H](CC(C)C)NC(=O)[C@H](Cc2cccc(C)c2)NC(=O)[C@H](CC(=O)O)NC(=O)[C@H](Cc2ccc(O)cc2)NC(=O)[C@H](Cc2ccncc2)NC(=O)CSC[C@@H](C(=O)N[C@@H](CCN)C(=O)NCCCCCCCCCCC(=O)O)NC(=O)[C@H](CCCCN)NC(=O)[C@H](C(C)C)NC(=O)[C@H](CC(C)C)NC(=O)[C@H](CCN)NC(=O)[C@@H](C)NC(=O)[C@H](C)N(C)C1=O (some centres unmarked) [Example 2200] ({CH2CO}-[4Pal]YD[Phe(3-Me)]L[Bip][Ile(3ξ)][NMeA][dA][Dab]LVKC[Dab][Aun]-OH; thioether N-14) | 7.69 |
| CCC(C)[C@@H]1NC(=O)[C@H](Cc2ccc(-c3ccccc3)cc2)NC(=O)[C@H](CC(C)C)NC(=O)[C@H](Cc2cccc(C)c2)NC(=O)[C@H](CC(=O)O)NC(=O)[C@H](Cc2ccc(O)cc2)NC(=O)[C@H](Cc2ccncc2)NC(=O)CSC[C@@H](C(=O)N[C@@H](CN)C(=O)NCCCCCCCCCCC(=O)O)NC(=O)[C@H](CCCN)NC(=O)[C@H](C(C)C)NC(=O)[C@H](CC(C)C)NC(=O)[C@H](CCN)NC(=O)[C@@H](C)NC(=O)[C@H](C)N(C)C1=O (some centres unmarked) [Example 2202] ({CH2CO}-[4Pal]YD[Phe(3-Me)]L[Bip][Ile(3ξ)][NMeA][dA][Dab]LV[Orn]C[Dap][Aun]-OH; thioether N-14) | 7.50 |

Continued by rising pIC50, values first:

| pIC50 | Compound |
| --- | --- |
| 7.03 | CC[C@@H](C)C1NC(=O)[C@H](Cc2ccc(-c3ccccc3)cc2)NC(=O)[C@H](CC(C)C)NC(=O)[C@H](Cc2cccc(C)c2)NC(=O)[C@H](CC(=O)O)NC(=O)[C@H](Cc2ccc(O)cc2)NC(=O)[C@H](Cc2ccccc2)NC(=O)CSC[C@@H](C(=O)N[C@@H](CCN)C(=O)NCCCCCCCCCCC(=O)O)NC(=O)[C@H](CCCCN)NC(=O)[C@H](C(C)C)NC(=O)[C@H](CC(C)C)NC(=O)[C@H](CCN)NC(=O)[C@@H](C)NC(=O)[C@H](C)N(C)C1=O (some centres unmarked) [Example 2197] ({CH2CO}-FYD[Phe(3-Me)]L[Bip][X11][NMeA][dA][Dab]LVKC[Dab][Aun]-OH; thioether N-14) |
| 7.54 | Cc1cccc(C[C@@H]2NC(=O)[C@H](CC(=O)O)NC(=O)[C@H](Cc3ccc(C(=O)O)cc3)NC(=O)[C@H](Cc3ccc(OCC(=O)O)cc3)NC(=O)CSC[C@@H](C(=O)N[C@@H](CCCN)C(=O)NCCCCCCCCCCC(=O)O)NC(=O)[C@H](CO)NC(=O)[C@H](C(C)C)NC(=O)[C@H](CC3CCCCC3)NC(=O)[C@H](CN)NC(=O)[C@@H](CC(C)C)NC(=O)[C@H](C)N(C)C(=O)[C@H](C(C)C)NC(=O)[C@H](Cc3ccc(-c4ccccc4)cc3)NC(=O)[C@H](CC(C)C)NC2=O)c1 [Example 2189] ({CH2CO}-Y(Carboxymethyl)[Phe(4-COOH)]D[Phe(3-Me)]L[Bip]V[NMeA][dL][Dap][Cha]VSC[Orn][Aun]-OH; thioether N-14) |
| 7.69 | CC(C)C[C@H]1NC(=O)[C@H](C)N(C)C(=O)[C@H](C(C)C)NC(=O)[C@H](Cc2ccc(-c3ccccc3)cc2)NC(=O)[C@H](C(C)C)NC(=O)[C@H](Cc2c[nH]c3ccccc23)NC(=O)[C@H](CC(=O)O)NC(=O)[C@H](Cc2ccc(OCC(=O)O)cc2)NC(=O)[C@H](CCCNC(=N)N)NC(=O)CSC[C@@H](C(=O)N[C@H](CC(N)=O)C(=O)NCCOCCOCC(=O)NCCCCCCCCCCCC(=O)O)NC(=O)[C@H](CCCCN)NC(=O)[C@H](C(C)C)NC(=O)[C@H](CC2CCCCC2)NC(=O)[C@H](CCN)NC1=O [Example 2204] ({CH2CO}-RY(Carboxymethyl)DWV[Bip]V[NMeA][dL][Dab][Cha]VKC[dN][AEEA][12Ado]-OH; thioether N-14) |
| 7.82 | Cc1cccc(C[C@@H]2NC(=O)[C@H](CC(=O)O)NC(=O)[C@H](Cc3ccc(O)cc3)NC(=O)[C@H](Cc3ccncc3)NC(=O)CSC[C@@H](C(=O)N[C@@H](CCN)C(=O)NCCCCCCCCCCC(=O)O)NC(=O)[C@H](CCCN)NC(=O)[C@H](C(C)C)NC(=O)[C@H](CC(C)C)NC(=O)[C@H](CCN)NC(=O)[C@@H](C)NC(=O)[C@H](C)N(C)C(=O)[C@H](C(C)C)NC(=O)[C@H](Cc3ccc(-c4ccccc4)cc3)NC(=O)[C@H](CC(C)C)NC2=O)c1 [Example 2201] ({CH2CO}-[4Pal]YD[Phe(3-Me)]L[Bip]V[NMeA][dA][Dab]LV[Orn]C[Dab][Aun]-OH; thioether N-14) |
| 7.87 | CC(C)C[C@H]1NC(=O)[C@H](C)N(C)C(=O)[C@H](C(C)C)NC(=O)[C@H](Cc2ccc(-c3ccccc3)cc2)NC(=O)[C@H](C(C)C)NC(=O)[C@H](Cc2c[nH]c3ccccc23)NC(=O)[C@H](CC(=O)O)NC(=O)[C@H](Cc2ccc(OCC(=O)O)cc2)NC(=O)[C@H](CCCCNC(=N)N)NC(=O)CSC[C@@H](C(=O)N[C@@H](CCN)C(=O)NCCCCCCCCCCC(=O)O)NC(=O)[C@H](CO)NC(=O)[C@H](C(C)C)NC(=O)[C@H](CC2CCCCC2)NC(=O)[C@H](CCN)NC1=O [Example 2191] ({CH2CO}-[hArg]Y(Carboxymethyl)DWV[Bip]V[NMeA][dL][Dab][Cha]VSC[Dab][Aun]-OH; thioether N-14) |
| 7.92 | CC(C)C[C@@H]1NC(=O)[C@H](Cc2c[nH]c3ccccc23)NC(=O)[C@H](CC(=O)O)NC(=O)[C@H](Cc2ccc(C(=O)O)cc2)NC(=O)[C@H](Cc2ccc(OCC(=O)O)cc2)NC(=O)CSC[C@@H](C(=O)N[C@@H](CCN)C(=O)NCCCCCCCCCCC(=O)O)NC(=O)[C@H](CCCNC(N)=O)NC(=O)[C@H](C(C)C)NC(=O)[C@H](CC2CCCCC2)NC(=O)[C@H](CCN)NC(=O)[C@@H](CC(C)C)NC(=O)[C@H](C)N(C)C(=O)[C@H](C(C)C)NC(=O)[C@H](Cc2ccc(-c3ccccc3)cc2)NC1=O [Example 2188] ({CH2CO}-Y(Carboxymethyl)[Phe(4-COOH)]DWL[Bip]V[NMeA][dL][Dab][Cha]V[Cit]C[Dab][Aun]-OH; thioether N-14) |
| 8.02 | CC(C)C[C@H]1NC(=O)[C@H](C)N(C)C(=O)[C@H](C(C)C)NC(=O)[C@H](Cc2ccc(-c3ccccc3)cc2)NC(=O)[C@H](C(C)C)NC(=O)[C@H](Cc2c[nH]c3ccccc23)NC(=O)[C@H](CC(=O)O)NC(=O)[C@H](Cc2ccc(OCC(=O)O)cc2)NC(=O)[C@H](C(C)O)NC(=O)CSC[C@@H](C(=O)N[C@H](CC(N)=O)C(=O)NCCOCCOCC(=O)NCCCCCCCCCCCC(=O)O)NC(=O)[C@H](CCCN)NC(=O)[C@H](C(C)C)NC(=O)[C@H](CC2CCCCC2)NC(=O)[C@H](CCN)NC1=O (stereo partly drawn) [Example 2203] ({CH2CO}-[Thr(3ξ)]Y(Carboxymethyl)DWV[Bip]V[NMeA][dL][Dab][Cha]V[Orn]C[dN][AEEA][12Ado]-OH; thioether N-14) |
